Results: article PMC4035429 (Neuroscience, 2014)
One block for each substance: values may come before it.

Experiments:
[1] = test system: Z310 cells
[2] = target: LRP1 (Rattus norvegicus, UniProt G3V928); assay: Aβ efflux through Z310 monolayer with LRP1 inhibition; assay type: cell-based; details: mean±SD
[3] = test system: LRP1; assay: LRP1 knockdown efficiency in Z310 cells by Western blot; assay type: cell-based, rat; details: 10nM siRNA, LRP1 to β-actin ratio
[4] = test system: Aβ; details: ref Kanekiyo and Bu, 2009; cited from earlier work
[5] = LRP1 knockdown by siRNA plus 10mg/ml IVIG, p<0.001, n=3

LRP1 (Rattus norvegicus, UniProt G3V928), sequence (G3V928 20-4545): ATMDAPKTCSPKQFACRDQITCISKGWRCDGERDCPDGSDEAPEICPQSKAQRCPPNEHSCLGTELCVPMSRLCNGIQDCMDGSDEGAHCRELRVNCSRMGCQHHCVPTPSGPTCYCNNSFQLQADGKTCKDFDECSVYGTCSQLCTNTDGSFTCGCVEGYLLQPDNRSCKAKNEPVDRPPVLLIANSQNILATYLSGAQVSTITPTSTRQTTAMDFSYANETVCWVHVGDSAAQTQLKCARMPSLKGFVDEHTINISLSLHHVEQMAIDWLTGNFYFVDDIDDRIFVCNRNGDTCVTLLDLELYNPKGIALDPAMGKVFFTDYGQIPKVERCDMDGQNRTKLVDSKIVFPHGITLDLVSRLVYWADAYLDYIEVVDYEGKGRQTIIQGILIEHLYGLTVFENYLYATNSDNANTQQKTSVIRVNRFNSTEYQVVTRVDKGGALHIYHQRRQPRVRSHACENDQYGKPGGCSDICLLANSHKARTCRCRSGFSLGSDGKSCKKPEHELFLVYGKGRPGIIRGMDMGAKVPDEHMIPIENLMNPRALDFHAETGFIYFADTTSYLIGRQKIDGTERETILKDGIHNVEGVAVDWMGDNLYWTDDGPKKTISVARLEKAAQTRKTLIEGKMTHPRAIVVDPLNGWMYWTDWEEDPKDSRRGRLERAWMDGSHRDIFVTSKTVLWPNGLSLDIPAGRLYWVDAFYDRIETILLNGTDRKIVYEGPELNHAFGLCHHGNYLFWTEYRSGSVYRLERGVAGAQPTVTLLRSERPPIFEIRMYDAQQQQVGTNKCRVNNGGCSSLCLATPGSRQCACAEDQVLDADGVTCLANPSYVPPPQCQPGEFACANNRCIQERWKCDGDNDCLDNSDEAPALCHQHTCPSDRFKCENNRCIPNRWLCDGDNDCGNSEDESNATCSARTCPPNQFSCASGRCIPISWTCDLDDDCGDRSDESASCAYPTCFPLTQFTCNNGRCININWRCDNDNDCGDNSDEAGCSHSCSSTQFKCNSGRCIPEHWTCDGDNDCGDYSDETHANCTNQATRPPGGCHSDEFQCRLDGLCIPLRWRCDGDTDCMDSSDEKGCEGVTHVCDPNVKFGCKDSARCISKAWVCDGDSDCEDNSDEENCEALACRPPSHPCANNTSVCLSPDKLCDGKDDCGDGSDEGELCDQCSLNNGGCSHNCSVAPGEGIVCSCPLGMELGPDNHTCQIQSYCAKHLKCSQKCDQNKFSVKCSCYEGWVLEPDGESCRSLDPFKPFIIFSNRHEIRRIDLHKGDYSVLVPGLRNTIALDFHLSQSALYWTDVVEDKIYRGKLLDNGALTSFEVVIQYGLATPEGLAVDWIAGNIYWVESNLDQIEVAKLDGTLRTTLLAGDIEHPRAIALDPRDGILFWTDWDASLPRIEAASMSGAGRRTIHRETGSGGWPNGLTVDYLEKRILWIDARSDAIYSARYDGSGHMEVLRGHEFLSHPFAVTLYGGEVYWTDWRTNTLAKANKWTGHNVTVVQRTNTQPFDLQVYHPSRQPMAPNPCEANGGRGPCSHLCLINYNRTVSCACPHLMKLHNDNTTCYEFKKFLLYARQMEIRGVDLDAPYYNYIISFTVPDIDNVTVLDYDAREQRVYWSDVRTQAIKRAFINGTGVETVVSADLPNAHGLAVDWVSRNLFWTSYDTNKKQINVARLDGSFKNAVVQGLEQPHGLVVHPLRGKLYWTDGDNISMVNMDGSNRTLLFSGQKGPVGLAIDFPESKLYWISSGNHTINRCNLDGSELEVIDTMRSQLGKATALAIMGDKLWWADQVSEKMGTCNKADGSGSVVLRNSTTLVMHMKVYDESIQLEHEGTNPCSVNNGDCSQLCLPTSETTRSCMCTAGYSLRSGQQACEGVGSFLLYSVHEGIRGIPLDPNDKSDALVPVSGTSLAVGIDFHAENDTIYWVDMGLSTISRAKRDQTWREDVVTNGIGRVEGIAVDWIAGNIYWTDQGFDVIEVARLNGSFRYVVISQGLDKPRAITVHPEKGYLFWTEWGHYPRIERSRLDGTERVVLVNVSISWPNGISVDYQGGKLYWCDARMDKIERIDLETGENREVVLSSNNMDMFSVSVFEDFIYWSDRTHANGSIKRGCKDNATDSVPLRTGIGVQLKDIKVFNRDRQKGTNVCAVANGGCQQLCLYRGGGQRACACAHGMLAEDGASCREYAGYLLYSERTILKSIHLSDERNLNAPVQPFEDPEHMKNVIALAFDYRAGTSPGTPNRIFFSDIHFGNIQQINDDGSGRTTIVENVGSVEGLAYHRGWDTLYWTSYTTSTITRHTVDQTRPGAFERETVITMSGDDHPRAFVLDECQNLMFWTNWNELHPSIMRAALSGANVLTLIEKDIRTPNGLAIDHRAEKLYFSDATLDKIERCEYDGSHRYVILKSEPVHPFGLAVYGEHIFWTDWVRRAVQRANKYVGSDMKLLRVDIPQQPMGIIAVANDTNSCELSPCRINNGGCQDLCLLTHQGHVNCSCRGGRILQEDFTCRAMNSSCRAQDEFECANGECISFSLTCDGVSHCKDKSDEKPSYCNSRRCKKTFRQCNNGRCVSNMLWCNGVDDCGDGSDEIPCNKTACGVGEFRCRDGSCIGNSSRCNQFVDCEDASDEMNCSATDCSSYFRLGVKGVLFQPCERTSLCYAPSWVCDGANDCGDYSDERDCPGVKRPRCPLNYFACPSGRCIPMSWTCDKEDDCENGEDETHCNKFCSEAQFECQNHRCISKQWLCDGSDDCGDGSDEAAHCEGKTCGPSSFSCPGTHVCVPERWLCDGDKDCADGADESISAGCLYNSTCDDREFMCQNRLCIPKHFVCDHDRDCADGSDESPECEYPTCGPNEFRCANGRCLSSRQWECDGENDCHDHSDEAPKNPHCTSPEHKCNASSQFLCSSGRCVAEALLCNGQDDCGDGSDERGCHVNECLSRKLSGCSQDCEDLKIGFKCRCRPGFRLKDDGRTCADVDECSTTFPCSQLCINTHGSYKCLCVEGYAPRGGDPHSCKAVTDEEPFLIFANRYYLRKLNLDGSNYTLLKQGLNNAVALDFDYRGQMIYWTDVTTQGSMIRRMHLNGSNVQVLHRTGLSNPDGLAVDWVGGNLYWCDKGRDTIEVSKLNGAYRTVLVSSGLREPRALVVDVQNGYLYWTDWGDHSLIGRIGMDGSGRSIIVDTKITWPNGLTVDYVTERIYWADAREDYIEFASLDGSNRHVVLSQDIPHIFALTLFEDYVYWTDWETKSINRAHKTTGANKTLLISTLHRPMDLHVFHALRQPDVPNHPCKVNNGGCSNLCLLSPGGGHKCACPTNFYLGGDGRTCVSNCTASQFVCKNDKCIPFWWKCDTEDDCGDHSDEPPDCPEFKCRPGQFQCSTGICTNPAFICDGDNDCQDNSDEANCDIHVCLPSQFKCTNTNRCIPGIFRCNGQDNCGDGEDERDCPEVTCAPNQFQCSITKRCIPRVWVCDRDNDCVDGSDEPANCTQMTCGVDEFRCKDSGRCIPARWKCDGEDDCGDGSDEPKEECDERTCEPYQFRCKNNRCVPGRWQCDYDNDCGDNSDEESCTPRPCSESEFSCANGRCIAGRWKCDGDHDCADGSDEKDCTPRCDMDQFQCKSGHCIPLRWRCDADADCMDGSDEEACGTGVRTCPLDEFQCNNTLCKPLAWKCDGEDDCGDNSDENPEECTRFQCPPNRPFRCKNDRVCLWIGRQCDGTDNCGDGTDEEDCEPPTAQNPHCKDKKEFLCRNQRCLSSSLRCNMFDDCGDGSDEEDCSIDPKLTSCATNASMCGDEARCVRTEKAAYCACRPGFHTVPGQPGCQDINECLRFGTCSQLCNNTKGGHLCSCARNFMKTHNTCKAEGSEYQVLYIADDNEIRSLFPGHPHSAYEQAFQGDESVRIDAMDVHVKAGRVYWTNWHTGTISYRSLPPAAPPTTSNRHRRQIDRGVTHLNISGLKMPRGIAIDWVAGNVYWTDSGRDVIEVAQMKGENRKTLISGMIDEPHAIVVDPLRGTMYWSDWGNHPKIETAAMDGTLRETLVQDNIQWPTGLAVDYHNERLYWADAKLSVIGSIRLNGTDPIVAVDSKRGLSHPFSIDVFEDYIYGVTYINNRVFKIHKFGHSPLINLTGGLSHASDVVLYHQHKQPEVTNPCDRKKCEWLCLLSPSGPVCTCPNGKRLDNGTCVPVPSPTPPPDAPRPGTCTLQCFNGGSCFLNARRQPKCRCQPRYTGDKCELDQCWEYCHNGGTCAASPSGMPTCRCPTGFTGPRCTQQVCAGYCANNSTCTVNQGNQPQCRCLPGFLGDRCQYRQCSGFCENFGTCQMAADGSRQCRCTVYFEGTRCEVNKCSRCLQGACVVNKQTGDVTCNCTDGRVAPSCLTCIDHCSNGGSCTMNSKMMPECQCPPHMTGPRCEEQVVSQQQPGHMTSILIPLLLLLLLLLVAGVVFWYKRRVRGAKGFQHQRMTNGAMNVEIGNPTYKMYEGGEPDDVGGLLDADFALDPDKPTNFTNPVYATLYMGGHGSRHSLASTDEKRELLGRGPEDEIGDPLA

Substance: Aβ1-40: beta-amyloid 1-40 peptide (gift from Eli Lilly) added to the inner chamber at 1 μM
change of TEER between treated and untreated samples [1]: little change

Substance: LRP1 siRNA: siRNA from Sigma-Aldrich; sense 5′ -CCUAUCUUUGAGAUCCGAA-3′, antisense 5′ -UUCGGAUCUCAAAGAUAGG-3′ (chemistry not given here)
IVIG-induced Aβ efflux from inner chambers after 1 hr Aβ added [2, 5]: 1.1 ± 0.28 ng/mL
IVIG-induced Aβ efflux from inner chambers after 3 hrs Aβ added [2, 5]: 2.86 ± 0.86 ng/mL
Aβ concentration in outer chamber 1 hr after Aβ added ([2]; LRP1 knockdown by siRNA, without IVIG, 1 μM Aβ, scrambled siRNA control 0.28±0.08, p<0.05, n=3): 0.02 ± 0.004 ng/mL
Aβ concentration in outer chamber 3 hrs after Aβ added ([2]; LRP1 knockdown by siRNA, without IVIG, 1 μM Aβ, scrambled siRNA control 4.0±0.31, p<0.05, n=3): 1.17 ± 0.38 ng/mL
reduction of LRP1 at protein expression levels as compared to the scrambled siRNA controls [3]: 84.7%

IVIG-induced Aβ efflux from inner chambers at 1 hr ([2]; 100 nM RAP plus 10mg/ml IVIG, IVIG alone 2.52±0.22, p<0.001, n=5): 1.77 ± 0.1 ng/mL
IVIG-induced Aβ efflux from inner chambers at 3 hrs ([2]; 100 nM RAP plus 10mg/ml IVIG, IVIG alone 7.61±0.91, p<0.001, n=5): 5.41 ± 0.92 ng/mL
Substance: RAP: recombinant receptor-associated protein (EMD Millipore), a functional inhibitor of LRP1
concentration at which RAP could bind Aβ [4]: above 500 nM
